Test results as given in patent US11623002B2, “ALK polypeptides and methods of use thereof” (Elicio Therapeutics, Inc., priority 2016, dated 2023).
Entries after “also recorded” stand apart in the source; their conditions may differ.

How the values were obtained:
CD4 T-cell = assay: Intracellular cytokine staining (ICS), CD4 T-cell response to individual ALK polypeptides; assay type: cell-based; details: spleen and lymph node cells of mice immunized with SEQ ID NOs: 1-59 mixed with Freund's adjuvant; re-stimulated with individual ALK polypeptides; FIGS. 2A and 2B
Text: (§1) To identify the immunodominant ALK polypeptides, mice were immunized with ALK polypeptides having the sequences of SEQ ID NOs: 1-59 listed in Table 1A mixed with Freund's adjuvant. Spleens and lymph nodes were then removed from immunized mice and assayed by intracellular cytokine staining (ICS).

CD8 T-cell = assay: Intracellular cytokine staining (ICS), CD8 T-cell response to individual ALK polypeptides; assay type: cell-based; details: spleen and lymph node cells of mice immunized with SEQ ID NOs: 1-59 mixed with Freund's adjuvant; re-stimulated with individual ALK polypeptides; FIGS. 2C and 2D
Text: as §1

Row | Sequence | CD4 T-cell responses (ICS) (CD4 T-cell) | CD8 T-cell response (ICS) (CD8 T-cell)
1 | PVYRIMTQCWQHQPE [SEQ ID NO: 53] | strongest CD4 T-cell responses | 
2 | KNCPGPVYRIMTQCW [SEQ ID NO: 52] | strongest CD4 T-cell responses | 
3 | QNIVRCIGVSLQSLP [SEQ ID NO: 17] | strongest CD4 T-cell responses | 
4 | LDFLMEALIISKFNH [SEQ ID NO: 14] | strongest CD4 T-cell responses | strongest CD8 T-cell response
5 | PSPLQVAVRTLPEVC [SEQ ID NO: 10] | strongest CD4 T-cell responses | strongest CD8 T-cell response
6 | LTCPGPGRVAKIGDF [SEQ ID NO: 33] |  | strongest CD8 T-cell response; also recorded: CD8 T-cell (CD8) stimulating sequence
7 | GDLKSFLRETRPRPS [SEQ ID NO: 22] | strongest CD4 T-cell responses | 
